Laboratory results as given in patent publication US20200278355A1, “CONJUGATED PROTEINS AND USES THEREOF” (THE SCRIPPS RESEARCH INSTITUTE, priority 2017, published 2020).

Assays:
NUDT8 = biological target: T1, NUDT8 (Homo sapiens, UniProt Q8WV74); experiment: ABPP-SILAC BPK-29yne competition in H460 cells: NUDT8; type: cell-based; conditions: 20 μM
T1 construct: H460 cells or H460 cells expressing luciferase in a 10 cm plate were incubated with indicated compounds; endogenous in cells; host or cells: H460
T1 sequence (Q8WV74 whole entry): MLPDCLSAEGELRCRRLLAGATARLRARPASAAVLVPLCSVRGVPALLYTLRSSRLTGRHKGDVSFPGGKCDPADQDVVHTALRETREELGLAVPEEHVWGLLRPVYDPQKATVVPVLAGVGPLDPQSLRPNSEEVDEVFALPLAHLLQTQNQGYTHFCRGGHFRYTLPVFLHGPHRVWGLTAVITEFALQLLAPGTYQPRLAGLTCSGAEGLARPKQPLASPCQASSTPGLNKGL
Experimental: Isotopically labeled H460 cell lines were generated as described above. Light and heavy cells were treated with compounds (20 μM) or DMSO, respectively, for 3 h, followed by labeling with the BPK-29yne (5 μM) for 30 min. Cells were washed once ice-cold PBS and lysed in 1% Triton 100-X dissolved in PBS with protease inhibitors (Sigma) by sonication. Lysate was adjusted to 1.5 mg ml^−1 in 500 μL. Samples were conjugated by CuAAC to Biotin-PEG4-azide (5 μL of 10 mM stocks in DMSO, final concentration=100 μM). CuAAC “click” mix contained TCEP, TBTA ligand and CuSO4 as detailed for isoTOP-ABPP sample preparation. Samples were further processed as detailed in: isoTOP-ABPP streptavidin enrichment and isoTOP-ABPP trypsin TEV digestion with the following exception: after overnight incubation at 37° C. with trypsin, tryptic digests were separated from the beads with Micro Bio-Spin columns (Bio-Rad) by centrifugation (1,000×g, 1 min). Beads were rinsed once with water (200 μL) and combined with tryptic digests. […]
The MS2 spectra data were extracted and searched using RAW Convertor and ProLuCID algorithm as described in isoTOP-ABPP peptide and protein quantification. […] Ratios of heavy/light (DMSO/test compound) peaks were calculated using in-house CIMAGE software. […] The mean R values and standard deviation for multiple biological experiments were calculated from the average ratios from each replicate. […]

[1] = test system: CRY1, DEPDC1, and CPLX2 expression in KEAP1-WT H2009 cells; experiment: Gene expression changes (qPCR) in KEAP1-WT NSCLC cells; type: cell-based, human

SMILES: O=C(c1ccc(N2CCOCC2)cc1)N1CCCC(N(Cc2ccccc2)C(=O)CCl)CC1 (centres unmarked) [BPK-29, N-benzyl-2-chloro-N-(1-(4-morpholinobenzoyl)azepan-4-yl)acetamide]
- BPK-29-competed BPK-29yne analysis (NUDT8): Yes (Competed defined as showing R value ≥ 2.5 at 20 μM of test compound)
- gene expression changes (CRY1, DEPDC1, CPLX2) [1]: not observed
